In patent US20240182487A1, “MACROCYCLES AND THEIR USE” (BLOSSOMHILL THERAPEUTICS, INC., priority 2020, published 2024):

Molecular target: EGFR (Δ746-750) (Homo sapiens (Human), UniProt P00533, DEL746-750)
Assay: HotSpot radiometric kinase assay, EGFR Δ746-750
Type: biochemical
Conditions: radiometric filter-binding, 10 μM ATP

Sequence of EGFR (Δ746-750) (P00533 other isoform, or with tags, fused parts or gaps del 1-668/del 746-750 limits assumed): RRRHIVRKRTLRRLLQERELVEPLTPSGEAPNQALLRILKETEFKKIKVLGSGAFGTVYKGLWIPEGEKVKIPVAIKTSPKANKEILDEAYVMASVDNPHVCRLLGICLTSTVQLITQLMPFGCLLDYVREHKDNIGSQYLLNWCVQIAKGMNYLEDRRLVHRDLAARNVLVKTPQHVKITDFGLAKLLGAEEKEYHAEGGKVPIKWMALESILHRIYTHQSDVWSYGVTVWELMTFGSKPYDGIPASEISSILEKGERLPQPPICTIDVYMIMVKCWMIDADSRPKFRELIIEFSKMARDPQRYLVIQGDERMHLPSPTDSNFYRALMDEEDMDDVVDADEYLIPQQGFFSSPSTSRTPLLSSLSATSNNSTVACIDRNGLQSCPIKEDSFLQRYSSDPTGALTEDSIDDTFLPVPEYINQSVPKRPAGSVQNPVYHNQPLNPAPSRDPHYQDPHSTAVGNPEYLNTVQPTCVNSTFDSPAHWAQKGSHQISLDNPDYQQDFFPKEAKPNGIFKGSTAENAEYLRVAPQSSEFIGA

Row | SMILES | IC50
1 | CCc1c2c(nn1C)C(=O)N(C)CCOc1c[nH]c(=O)cc1-c1cc3c(n[nH]c3cn1)/C=C/2 [Cpd. 38, (18E)-17-ethyl-13,16-dimethyl-2,12,13,16-tetrahydro-5,3-(azenometheno)dipyrazolo[3,4-f:3′,4′-j]pyrido[4,3-n][1,4]oxazacyclopentadecine-7,14(8H,11H)-dione] | 0.964 µM
2 | COC(=O)c1ccc2c(c1)OCCCOc1c(cnn1C)-c1cc3c(n[nH]c3cn1)/C=C/2 [Cpd. 67, methyl (11E)-1-methyl-19,20-dihydro-1H,8H,18H-10,7,4-(ethan[1]yl[1,2]diylidene)pyrazolo[3,4-f][1,5,9,12,13]benzodioxatriazacyclooctadecine-15-carboxylate] | 1.53 µM
3 | COC(=O)c1ccc2c(c1)/C=C/c1n[nH]c3cnc(cc13)-c1cnn(C)c1OCCCO2 [Cpd. 68, methyl (11E)-1-methyl-19,20-dihydro-1H,8H,18H-10,7,4-(ethan[1]yl[1,2]diylidene)pyrazolo[3,4-f][1,5,9,12,13]benzodioxatriazacyclooctadecine-14-carboxylate] | 0.0933 µM
4 | COC(=O)c1ccc2c(c1)OCCOCc1c(cnn1C)-c1cc3c(n[nH]c3cn1)/C=C/2 [Cpd. 69, methyl (11E)-1-methyl-1,18,19,21-tetrahydro-8H-10,7,4-(ethan[1]yl[1,2]diylidene)pyrazolo[3,4-f][1,4,9,12,13]benzodioxatriazacyclooctadecine-15-carboxylate] | 1 µM
5 | Cn1ncc2c1OCCCOc1cc(C(=O)O)ccc1/C=C/c1n[nH]c3cnc-2cc13 [Cpd. 73, (11E)-1-methyl-19,20-dihydro-1H,8H,18H-10,7,4-(ethan[1]yl[1,2]diylidene)pyrazolo[3,4-f][1,5,9,12,13]benzodioxatriazacyclooctadecine-15-carboxylic acid] | 0.0358 µM
6 | COC(=O)c1ccc2c(c1)/C=C/c1n[nH]c3cnc(cc13)-c1cnn(C)c1COCCO2 [Cpd. 75, methyl (11E)-1-methyl-1,18,19,21-tetrahydro-8H-10,7,4-(ethan[1]yl[1,2]diylidene)pyrazolo[3,4-f][1,4,9,12,13]benzodioxatriazacyclooctadecine-14-carboxylate] | 0.051 µM
7 | CC(C)NC(=O)c1ccc2c(c1)OCCCOc1c(cnn1C)-c1cc3c(n[nH]c3cn1)/C=C/2 [Cpd. 77, (11E)-1-methyl-N-(propan-2-yl)-19,20-dihydro-1H,8H,18H-10,7,4-(ethan[1]yl[1,2]diylidene)pyrazolo[3,4-f][1,5,9,12,13]benzodioxatriazacyclooctadecine-15-carboxamide] | 0.0346 µM
8 | CCNC(=O)c1ccc2c(c1)OCCOCc1c(cnn1C)-c1cc3c(n[nH]c3cn1)/C=C/2 [Cpd. 84, (11E)-N-ethyl-1-methyl-1,18,19,21-tetrahydro-8H-10,7,4-(ethan[1]yl[1,2]diylidene)pyrazolo[3,4-f][1,4,9,12,13]benzodioxatriazacyclooctadecine-15-carboxamide] | 0.24 µM
9 | CN1CCC(NC(=O)c2ccc3c(c2)OCCOCc2c(cnn2C)-c2cc4c(n[nH]c4cn2)/C=C/3)CC1 [Cpd. 85, (11E)-1-methyl-N-(1-methylpiperidin-4-yl)-1,18,19,21-tetrahydro-8H-10,7,4-(ethan[1]yl[1,2]diylidene)pyrazolo[3,4-f][1,4,9,12,13]benzodioxatriazacyclooctadecine-15-carboxamide] | 0.07 µM
10 | CN1CC[C@@H](NC(=O)c2ccc3c(c2)OCCOCc2c(cnn2C)-c2cc4c(n[nH]c4cn2)/C=C/3)C1 [Cpd. 87, (11E)-1-methyl-N-[(3R)-1-methylpyrrolidin-3-yl]-1,18,19,21-tetrahydro-8H-10,7,4-(ethan[1]yl[1,2]diylidene)pyrazolo[3,4-f][1,4,9,12,13]benzodioxatriazacyclooctadecine-15-carboxamide] | 0.0346 µM

Second part, the compound after the results:

Row | IC50 | SMILES
11 | 0.0029 µM | CN(C)CCCNC(=O)c1ccc2c(c1)/C=C/c1n[nH]c3cnc(cc13)-c1cnn(C)c1OCCCO2 [Cpd. 70, (11E)-N-[3-(dimethylamino)propyl]-1-methyl-19,20-dihydro-1H,8H,18H-10,7,4-(ethan[1]yl[1,2]diylidene)pyrazolo[3,4-f][1,5,9,12,13]benzodioxatriazacyclooctadecine-14-carboxamide]
12 | 0.0183 µM | Cn1ncc2c1OCCCOc1ccc(C(=O)N3CCCC3)cc1/C=C/c1n[nH]c3cnc-2cc13 [Cpd. 72, [(11E)-1-methyl-19,20-dihydro-1H,8H,18H-10,7,4-(ethan[1]yl[1,2]diylidene)pyrazolo[3,4-f][1,5,9,12,13]benzodioxatriazacyclooctadecin-14-yl](pyrrolidin-1-yl)methanone]
13 | 0.004 µM | CN(C)CCNC(=O)c1ccc2c(c1)OCCCOc1c(cnn1C)-c1cc3c(n[nH]c3cn1)/C=C/2 [Cpd. 74, (11E)-N-[2-(dimethylamino)ethyl]-1-methyl-19,20-dihydro-1H,8H,18H-10,7,4-(ethan[1]yl[1,2]diylidene)pyrazolo[3,4-f][1,5,9,12,13]benzodioxatriazacyclooctadecine-15-carboxamide]
14 | 0.0022 µM | CN1CCC(CNC(=O)c2ccc3c(c2)/C=C/c2n[nH]c4cnc(cc24)-c2cnn(C)c2OCCCO3)CC1 [Cpd. 76, (11E)-1-methyl-N-[(1-methylpiperidin-4-yl)methyl]-19,20-dihydro-1H,8H,18H-10,7,4-(ethan[1]yl[1,2]diylidene)pyrazolo[3,4-f][1,5,9,12,13]benzodioxatriazacyclooctadecine-14-carboxamide]
15 | 0.0053 µM | CN1CCC(NC(=O)c2ccc3c(c2)OCCCOc2c(cnn2C)-c2cc4c(n[nH]c4cn2)/C=C/3)CC1 [Cpd. 78, (11E)-1-methyl-N-(1-methylpiperidin-4-yl)-19,20-dihydro-1H,8H,18H-10,7,4-(ethan[1]yl[1,2]diylidene)pyrazolo[3,4-f][1,5,9,12,13]benzodioxatriazacyclooctadecine-15-carboxamide]
16 | 0.0283 µM | CN1CC[C@@H](NC(=O)c2ccc3c(c2)OCCCOc2c(cnn2C)-c2cc4c(n[nH]c4cn2)/C=C/3)C1 [Cpd. 82, (11E)-1-methyl-N-[(3R)-1-methylpyrrolidin-3-yl]-19,20-dihydro-1H,8H,18H-10,7,4-(ethan[1]yl[1,2]diylidene)pyrazolo[3,4-f][1,5,9,12,13]benzodioxatriazacyclooctadecine-15-carboxamide]
17 | 0.0344 µM | CN1CC(NC(=O)c2ccc3c(c2)OCCCOc2c(cnn2C)-c2cc4c(n[nH]c4cn2)/C=C/3)C1 [Cpd. 83, (11E)-1-methyl-N-(1-methylazetidin-3-yl)-19,20-dihydro-1H,8H,18H-10,7,4-(ethan[1]yl[1,2]diylidene)pyrazolo[3,4-f][1,5,9,12,13]benzodioxatriazacyclooctadecine-15-carboxamide]
18 | 0.0156 µM | CNC(=O)c1ccc2c(c1)/C=C/c1n[nH]c3cnc(cc13)-c1cnn(C)c1OCCCO2 [Cpd. 86, (11E)-N,1-dimethyl-19,20-dihydro-1H,8H,18H-10,7,4-(ethan[1]yl[1,2]diylidene)pyrazolo[3,4-f][1,5,9,12,13]benzodioxatriazacyclooctadecine-14-carboxamide]
19 | 0.0246 µM | CN1CC[C@H](NC(=O)c2ccc3c(c2)OCCCOc2c(cnn2C)-c2cc4c(n[nH]c4cn2)/C=C/3)C1 [Cpd. 88, (11E)-1-methyl-N-[(3S)-1-methylpyrrolidin-3-yl]-19,20-dihydro-1H,8H,18H-10,7,4-(ethan[1]yl[1,2]diylidene)pyrazolo[3,4-f][1,5,9,12,13]benzodioxatriazacyclooctadecine-15-carboxamide]
